Experimental data as given in patent US3968219A, “Hydroxy phenylbutazone derivatives and their preparation” (Schering Aktiengesellschaft, priority 1974, dated 1976).

Columns and labels:
[1] = test system: stripped skin on the backs of volunteers; assay: vasoconstriction test (topical anti-inflammatory activity on stripped, hyperemic skin); type: in vivo; details: for vasoconstriction, colour value (normal skin = 100, untreated stripped skin = 0): 50 mg topical; for activity in vasoconstriction test compared with hydroxyphenylbutazone: topical, Table I, in words
Protocol: The topical anti-inflammatory activity of the novel hydroxyphenylbutazone derivatives can be determined employing the conventional vasoconstriction test as follows: On the backs of volunteers for the experiment, the stratum corneum was abraded by the application and tearing off of adhesive tape, conducted 20 times at the same spot, thus producing a pronounced hyperemia. Within the stripped area, respectively 50 mg of ointment containing in each case 0.1% and 0.01%, respectively, of the substance to be tested or of the reference substance in a water-oil base was applied on marked areas. The extent of the vasoconstriction was determined one, four, and eight hours after application. In order to evaluate the vasoconstriction, which is a representative syndrome of topical anti-inflammatory activity the color values of the untreated stripped skin and the treated stripped skin were determined and compred with the color value of the normal skin, wherein the color value of the normal skin was set to be equal to 100 and the color value of the untreated stripped skin was fixed at 0. Minor, moderate, and high-grade vasoconstriction was evaluated with values between 0 and 100. The results are shown in Table I below in which two compounds of this invention (III, IV) were compated with hydroxyphenylbutazone (I) and fluorocortolone.

[2] = test system: right ear of male rats (edema); assay: Edema test, Tonelli method (croton oil ear edema); type: in vivo; details: in pyridine/water/ether/croton oil irritant, 3 hours after application
Protocol: The anti-inflammatory activity of the novel hydroxyphenylbutazone derivatives upon topical application can also be determined in accordance with the Tonelli method, as follows:
The compound to be tested is dissolved in an irritant consisting of 4 parts of pyridine, 1 part of distilled water, 5 parts of ether, and 10 parts of a 4% ether croton oil solution. Felt strips attached to the insides of a slide tweezers are saturated with this text solution and pressed under slight pressure for 15 seconds onto the right ear of male rats weighing 100-160 g.
The left ear remains untreated and serves as control. Three hours after application, the animals are sacrificed and disks of a size of 9 mm. are punched out of their ears. The weight difference between the disk from the right ear and that of the left ear is a measure for the thus-formed edema.
The concentrations of effective agent (ED50) are determined which, when employed, cause a 50% reduction in the formation of edema.

| Compound | vasoconstriction, colour value (normal skin = 100, untreated stripped skin = 0) ([1]; 0.01% ointment, 1 hour) | vasoconstriction, colour value (normal skin = 100, untreated stripped skin = 0) ([1]; 0.01% ointment, 4 hours) | vasoconstriction, colour value (normal skin = 100, untreated stripped skin = 0) ([1]; 0.01% ointment, 8 hours) | vasoconstriction, colour value (normal skin = 100, untreated stripped skin = 0) ([1]; 0.1% ointment, 1 hour) | vasoconstriction, colour value (normal skin = 100, untreated stripped skin = 0) ([1]; 0.1% ointment, 4 hours) | vasoconstriction, colour value (normal skin = 100, untreated stripped skin = 0) ([1]; 0.1% ointment, 8 hours) | activity in vasoconstriction test compared with hydroxyphenylbutazone [1] | ED50 (concentration causing 50% reduction in the formation of edema) [2] |
| --- | --- | --- | --- | --- | --- | --- | --- | --- |
| CCCCC1C(=O)N(c2ccccc2)N(c2ccc(OC(=O)CCCCC(=O)Oc3ccc(N4C(=O)C(CCCC)C(=O)N4c4ccccc4)cc3)cc2)C1=O (stereo not shown) [III, Adipic Acid Bis[4-(4-butyl-3,5-dioxo-2-phenylpyrazolidinyl)-phenyl Ester]] | 34 | 66 | 70 | 44 | 72 | 78 | substantially more active than hydroxyphenylbutazone | 2100 µg/mL |
| CCCCC1C(=O)N(c2ccccc2)N(c2ccc(OC(=O)CCCCCC(=O)Oc3ccc(N4C(=O)C(CCCC)C(=O)N4c4ccccc4)cc3)cc2)C1=O (stereo not shown) [IV, Pimelic Acid Bis[4-(4-butyl-3,5-dioxo-2-phenylpyrazolidinyl)-phenyl Ester]] | – | 44 | 49 | – | 65 | 67 | substantially more active than hydroxyphenylbutazone | 4200 µg/mL |
| CCCCC1C(=O)N(c2ccccc2)N(c2ccc(O)cc2)C1=O (stereo not shown) [I, 4-Butyl-1-(4-hydroxyphenyl)-2-phenyl-3,5-pyrazolidinedione] | 18 | 25 | 24 | 15 | 35 | 33 | – | 8000 µg/mL |
| C[C@@H]1C[C@H]2[C@@H]3C[C@H](F)C4=CC(=O)C=C[C@]4(C)[C@H]3[C@@H](O)C[C@]2(C)[C@H]1C(=O)CO [II, 6α-Fluoro-11β,21-dihydroxy-16α-methyl-1,4-pregnadiene-3,20-dione] | 15 | 65 | 85 | 35 | 75 | 85 | – | 3400 µg/mL |
